{"source": "PubChem BioAssay AID1645864", "about": "(Buhrlage Lab, Dana-Farber Cancer Institute and Novartis …, 2021)", "note": "Activity calls are given as the source filed them.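 How the source made its calls: active means maximal inhibition of USP17 at or above 30% in the confirmation dose-response, a value not among the printed readouts; inactive means the rest.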", "data": [{"molecular_target": "Ubiquitin carboxyl-terminal hydrolase 17-like protein 5 (Homo sapiens) (UniProt A8MUK1)", "sequence (A8MUK1 whole entry, looked up)": "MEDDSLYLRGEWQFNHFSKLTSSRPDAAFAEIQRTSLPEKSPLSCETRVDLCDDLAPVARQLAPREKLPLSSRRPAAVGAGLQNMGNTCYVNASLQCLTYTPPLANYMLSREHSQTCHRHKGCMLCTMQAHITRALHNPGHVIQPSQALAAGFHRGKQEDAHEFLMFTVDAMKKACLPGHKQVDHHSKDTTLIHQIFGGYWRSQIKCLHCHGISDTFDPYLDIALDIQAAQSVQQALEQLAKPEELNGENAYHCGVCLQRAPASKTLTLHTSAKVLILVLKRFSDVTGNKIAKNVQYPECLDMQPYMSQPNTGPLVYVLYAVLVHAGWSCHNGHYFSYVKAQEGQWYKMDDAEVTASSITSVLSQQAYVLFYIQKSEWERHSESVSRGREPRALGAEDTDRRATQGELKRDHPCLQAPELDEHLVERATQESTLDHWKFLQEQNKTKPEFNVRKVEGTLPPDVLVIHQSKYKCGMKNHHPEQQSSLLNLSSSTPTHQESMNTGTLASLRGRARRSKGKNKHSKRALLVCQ", "test": "ubiquitin-specific protease 17 DUB inhibitors, concentration-effect assay, cell-free, verification of initial screening actives (AID 1645864)", "settings": "purified USP17, ubiquitin-rhodamine cleavage fluorescence, 3 h", "values": [{"smiles": "COc1ccc(/C=C/C(=O)Nc2cccc(S(=O)(=O)Nc3ccccc3Cl)c2)c(OC)c1", "IC50": "9.3 µM"}, {"smiles": "COc1ccc(OC)c(NC(=O)c2cc(Cl)ccc2OC)c1", "IC50": "2.53 µM"}, {"smiles": "O=C1N(Cc2ccc(F)cc2)CCN1c1ccc2c(c1)CCC2", "IC50": "> 50 µM (inactive)"}, {"smiles": "CC1CCCCN1c1nc(F)c2c(c1F)S(=O)(=O)CCN2Cc1ccccc1", "note": "(centres undefined)", "IC50": "> 50 µM (inactive)"}, {"smiles": "C[C@@H]1OC2=C(C(=O)c3cccc(O)c3C2=O)[C@H](O)[C@@H]1O", "IC50": "0.31 µM"}, {"smiles": "COc1cc(NC(=O)Cn2nc(-c3ccc(F)cc3)ccc2=O)ccc1-n1cnnn1", "IC50": "1.9 µM"}, {"smiles": "COc1ccc(C(=O)Nc2sc3c(c2C(=O)NCc2cccnc2)CCCC3)cc1", "IC50": "6.19 µM"}, {"smiles": "Cc1ccc(NC(=O)CSc2nc3c(cc2C#N)C(=O)CCC3)cc1", "IC50": "29.8 µM"}, {"smiles": "Cc1ccc2c(c1)-c1c(c(C(=O)N3CCN(c4ccccc4)CC3)nn1C)CS2", "IC50": "> 50 µM (inactive)"}, {"smiles": "COc1cccc(C(=O)Oc2ccc3c(=O)c(-c4ccc(OC)c(OC)c4)coc3c2)c1", "IC50": "0.167 µM"}, {"smiles": "COCCNC(=O)c1ccn(-c2ccc3ccc(-c4ccncc4)cn23)n1", "IC50": "> 50 µM (inactive)"}, {"smiles": "Cc1ccc(C(=O)N2CCCC3(C2)Nc2cccnc2NC3=NC2CCCC2)s1", "note": "(centres undefined)", "IC50": "> 50 µM (inactive)"}, {"smiles": "COC(=O)c1ccccc1NC(=O)CSc1nnc(CNc2ccc(F)cc2)n1CC1CCCO1", "note": "(centres undefined)", "IC50": "> 50 µM (inactive)"}, {"smiles": "COc1ccc(CCNC(=O)CSc2cn(CCNC(=O)c3ccc(F)cc3)c3ccccc23)cc1OC", "IC50": "31.3 µM"}, {"smiles": "Cc1ccc(CNC(=O)c2cccc(N3C(=O)N4CCc5c([nH]c6ccccc56)[C@@]4(C)C3=O)c2)cc1", "IC50": "23.1 µM"}, {"smiles": "CN(C)S(=O)(=O)N1CCCC2(C1)Nc1cccnc1NC2=NC1CCCC1", "note": "(centres undefined)", "IC50": "> 50 µM (inactive)"}, {"smiles": "COc1ccc2nc(Nc3ncc4c(n3)CCCC4=O)nc(C)c2c1", "IC50": "> 5 µM (inactive)"}, {"smiles": "CCc1ccc(NC(=O)Cc2nnc3cc(-c4nc(C)no4)ccn23)cc1", "IC50": "20.2 µM"}, {"smiles": "Cc1ccc(CNC(=O)c2cnc3ccccc3n2)cc1", "IC50": "> 50 µM (inactive)"}, {"smiles": "O=C1/C(=C/c2cn(-c3ccccc3)nc2-c2ccc3c(c2)OCCO3)Cc2ccccc21", "IC50": "> 50 µM (inactive)"}, {"smiles": "Cc1ccc(-c2ccc(N3CCOCC3)nn2)cc1S(=O)(=O)N1CCOCC1", "IC50": "> 50 µM (inactive)"}, {"smiles": "COc1ccc(-c2cc3c(=O)n(CC(=O)NCCCN4CCCC4)ncn3n2)cc1", "IC50": "29.2 µM"}, {"smiles": "O=c1ccc(-c2noc(-c3ccc4cc[nH]c4c3)n2)c[nH]1", "IC50": "> 50 µM (inactive)"}, {"smiles": "O=S(=O)(Nc1ccc(O)cc1)c1ccc2oc3ccc(S(=O)(=O)Nc4ccc(O)cc4)cc3c2c1", "IC50": "43.6 µM"}, {"smiles": "O=C(OCc1ccc(Br)cc1)c1ccc2ccccc2n1", "IC50": "> 50 µM (inactive)"}, {"smiles": "CC(=O)N1CCCC(c2nc(C)cc(-c3cc(F)ccc3C(=O)O)n2)C1", "note": "(centres undefined)", "IC50": "> 50 µM (inactive)"}, {"smiles": "O=C(Cn1cnc(-c2noc(-c3ccncc3)n2)c1)N1CCN(c2ccccc2F)CC1", "IC50": "> 50 µM (inactive)"}, {"smiles": "Cc1cccc(O)c1-c1nc2c(-c3nc4c(C(=O)O)cccc4o3)cccc2o1", "IC50": "> 50 µM (inactive)"}, {"smiles": "CC1CCN(c2cc(-n3cnc(C(=O)N4CCCCC4)c3)ncn2)CC1", "IC50": "> 50 µM (inactive)"}, {"smiles": "CC(C)NS(=O)(=O)c1cccc2c(NC(=O)C(Cc3ccccc3)NC(=O)c3ccccc3)cccc12", "note": "(centres undefined)", "IC50": "> 50 µM (inactive)"}, {"smiles": "CC(=O)N1CCc2cc(S(=O)(=O)NCc3ccc(C)cc3)ccc21", "IC50": "> 50 µM (inactive)"}, {"smiles": "Cc1cc(NC(=O)c2cc(-c3cccnc3)n[nH]2)ccc1Br", "IC50": "1.95 µM"}, {"smiles": "Cc1ccc(C)c(NS(=O)(=O)c2cc(-c3cnc(C4CC4)o3)ccc2C)c1", "IC50": "42.7 µM"}, {"smiles": "CCOc1ccc(CC(=O)Nc2ccc(-c3cn4cccnc4n3)cc2)cc1", "IC50": "31.7 µM"}, {"smiles": "Cc1ccc(C2c3c(-c4ccccc4O)n[nH]c3C(=O)N2Cc2ccco2)cc1", "note": "(centres undefined)", "IC50": "28.1 µM"}, {"smiles": "COc1ccccc1/C=C/C(=O)Nc1nc2n(n1)C(c1ccc(Cl)cc1)CC(=O)N2", "note": "(centres undefined)", "IC50": "> 50 µM (inactive)"}, {"smiles": "Cc1ccccc1C(=O)NCCn1cc(SCC(=O)Nc2ccc3c(c2)OCCO3)c2ccccc21", "IC50": "> 50 µM (inactive)"}, {"smiles": "CS(=O)(=O)NC1CCCN(C(=O)Nc2cccc3ccccc23)C1", "note": "(centres undefined)", "IC50": "17.3 µM"}, {"smiles": "Cn1cc(NC(=O)Nc2cccc3ccccc23)c2ccccc21", "IC50": "32.7 µM"}, {"smiles": "O=C(COc1cccc(C(=O)NCc2ccccc2)c1)Nc1ccc(Oc2ccccc2)cc1", "IC50": "34.5 µM"}, {"smiles": "COc1ccc(NC(=O)C2[C@@H]3C(=O)N(C4CCCCC4)C(=O)[C@@H]3[C@H]3c4ccccc4C=CN23)cc1", "note": "(some centres undefined)", "IC50": "46.9 µM"}, {"smiles": "O=C(COc1cccc2c1CCN(Cc1cccnc1)C2=O)Nc1ccc2c(c1)OCCO2", "IC50": "35.2 µM"}, {"smiles": "CC(c1ccccc1)c1nc(-c2ccc(=O)[nH]c2)no1", "note": "(centres undefined)", "IC50": "> 50 µM (inactive)"}, {"smiles": "Cc1ccccc1C(=O)OCCN1C(=O)c2cccc3c(N4CCOCC4)ccc(c23)C1=O", "IC50": "> 50 µM (inactive)"}, {"smiles": "COc1ccc(-c2cc(-c3ccc(F)cc3)[nH]c(=O)c2C#N)cc1", "IC50": "30.3 µM"}, {"smiles": "Clc1ccc(C[n+]2cc(-c3ccc(Cl)cc3)n3c2CCC3)cc1", "IC50": "> 50 µM (inactive)"}, {"smiles": "CCOC(=O)c1cc2c(ccn2C)n1CC(=O)N1CCc2ccccc2C1", "IC50": "> 50 µM (inactive)"}, {"smiles": "O=C(Nc1cccc(Br)c1)c1cc(-c2cccnc2)n[nH]1", "IC50": "4.2 µM"}, {"smiles": "Cc1ccc2oc(=O)c(S(=O)(=O)N3CCCCC3)cc2c1", "IC50": "16.4 µM"}]}]}
